In ChEMBL document CHEMBL5518237, “Design of Novel 2-Phenylquinazolin-4-amines as Selective CYP1B1 Inhibitors for Overcoming Paclitaxel Resistance in A549 Cells” (J Med Chem, 2024):
Activity calls are given as the source filed them. The rule behind the calls is not given here.

How the values were obtained:
CYP1B1 [1] = molecular target: T1, CYP1B1 (Homo sapiens, UniProt Q16678); test: Inhibition of human recombinant CYP1B1 using 7-ethoxyresorufin as substrate at 1 uM preincubated with enzyme for 5 mins followed by fluorescent substrate and NADPH addition and measured after 35 mins by EROD assay; type: ADME; details: recombinant CYP1B1, probe 7-ethoxyresorufin, time 40 min
T1 sequence (Q16678 whole entry): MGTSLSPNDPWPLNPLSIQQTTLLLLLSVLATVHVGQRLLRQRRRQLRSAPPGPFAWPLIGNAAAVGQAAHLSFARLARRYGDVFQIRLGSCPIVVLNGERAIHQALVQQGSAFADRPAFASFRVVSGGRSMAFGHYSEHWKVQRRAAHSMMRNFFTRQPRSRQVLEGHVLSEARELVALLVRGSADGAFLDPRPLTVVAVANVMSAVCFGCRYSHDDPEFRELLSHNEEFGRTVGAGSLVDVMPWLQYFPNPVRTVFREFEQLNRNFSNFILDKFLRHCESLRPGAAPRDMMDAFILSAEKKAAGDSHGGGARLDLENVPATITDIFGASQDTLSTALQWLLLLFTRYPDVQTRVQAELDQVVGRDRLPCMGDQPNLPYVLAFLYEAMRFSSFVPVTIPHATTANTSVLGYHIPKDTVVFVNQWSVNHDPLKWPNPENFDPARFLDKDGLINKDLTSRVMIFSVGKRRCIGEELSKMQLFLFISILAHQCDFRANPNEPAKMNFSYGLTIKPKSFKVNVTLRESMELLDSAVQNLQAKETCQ

CYP1B1 [2] = molecular target: T1, CYP1B1; test: Inhibition of human recombinant CYP1B1 using 7-ethoxyresorufin as substrate at 0.01 uM preincubated with enzyme for 5 mins followed by fluorescent substrate and NADPH addition and measured after 35 mins by EROD assay; type: ADME; details: recombinant CYP1B1, probe 7-ethoxyresorufin, time 40 min
CYP1A1 versus CYP1B1 = test: (§1) Selectivity ratio of IC50 for Inhibition of human recombinant CYP1A1 to IC50 for Inhibition of human recombinant CYP1B1; type: ADME; details: recombinant CYP1A1 and recombinant CYP1B1, read-out: Ratio IC50
Cytochrome P450 1A2 = molecular target: T2, Cytochrome P450 1A2 (Homo sapiens, UniProt P05177); test: Inhibition of human recombinant CYP1A2 using 7-ethoxyresorufin as substrate preincubated with enzyme for 5 mins followed by fluorescent substrate and NADPH addition and measured after 50 mins by EROD assay; type: ADME
T2 sequence (P05177 whole entry): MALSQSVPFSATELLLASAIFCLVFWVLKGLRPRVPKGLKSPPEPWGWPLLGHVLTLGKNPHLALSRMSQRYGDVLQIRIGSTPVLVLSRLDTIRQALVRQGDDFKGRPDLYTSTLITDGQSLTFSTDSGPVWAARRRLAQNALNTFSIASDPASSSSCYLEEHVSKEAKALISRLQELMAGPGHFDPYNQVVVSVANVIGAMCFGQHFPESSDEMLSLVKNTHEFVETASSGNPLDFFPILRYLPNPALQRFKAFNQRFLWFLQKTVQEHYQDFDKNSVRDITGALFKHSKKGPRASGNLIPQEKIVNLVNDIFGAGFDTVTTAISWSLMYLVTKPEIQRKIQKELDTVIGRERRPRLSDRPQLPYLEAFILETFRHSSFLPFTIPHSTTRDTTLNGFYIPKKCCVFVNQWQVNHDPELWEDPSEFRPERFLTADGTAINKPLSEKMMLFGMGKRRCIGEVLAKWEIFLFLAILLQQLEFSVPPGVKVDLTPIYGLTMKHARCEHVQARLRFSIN

Cytochrome P450 1A1 = molecular target: T3, Cytochrome P450 1A1 (Homo sapiens, UniProt P04798); test: Inhibition of human recombinant CYP1A1 using 7-ethoxyresorufin as substrate preincubated with enzyme for 5 mins followed by fluorescent substrate and NADPH addition and measured after 15 mins by EROD assay; type: ADME
T3 sequence (P04798 whole entry): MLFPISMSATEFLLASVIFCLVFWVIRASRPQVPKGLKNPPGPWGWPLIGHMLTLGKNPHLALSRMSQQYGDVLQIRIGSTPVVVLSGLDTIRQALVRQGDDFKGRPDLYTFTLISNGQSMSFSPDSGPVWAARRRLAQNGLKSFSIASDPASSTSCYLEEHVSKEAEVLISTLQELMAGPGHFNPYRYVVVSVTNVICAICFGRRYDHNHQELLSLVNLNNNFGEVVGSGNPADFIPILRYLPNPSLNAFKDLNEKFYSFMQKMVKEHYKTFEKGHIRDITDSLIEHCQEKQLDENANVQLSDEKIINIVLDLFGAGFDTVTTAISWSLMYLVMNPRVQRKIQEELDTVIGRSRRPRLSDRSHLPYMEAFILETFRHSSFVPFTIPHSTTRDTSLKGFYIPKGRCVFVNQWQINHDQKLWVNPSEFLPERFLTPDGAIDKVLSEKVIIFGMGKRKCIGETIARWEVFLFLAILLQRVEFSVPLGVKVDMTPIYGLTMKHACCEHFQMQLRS

Cytochrome P450 1B1 = molecular target: T4, Cytochrome P450 1B1 (Homo sapiens, UniProt Q16678); test: Inhibition of human recombinant CYP1B1 using 7-ethoxyresorufin as substrate preincubated with enzyme for 5 mins followed by fluorescent substrate and NADPH addition and measured after 35 mins by EROD assay; type: ADME
T4 sequence (Q16678 whole entry): T1 sequence (Q16678 whole entry)

CYP1A2 versus CYP1B1 = test: Selectivity ratio of IC50 for Inhibition of human recombinant CYP1A2 to IC50 for Inhibition of human recombinant CYP1B1; type: ADME; details: recombinant CYP1A2 and recombinant CYP1B1, read-out: Ratio IC50
A549 [3] = test: Inhibition of tumor metastasis in DMBA-stimulated PTX resistant human A549 cells assessed as inhibition of cell migration by measuring decrease in crawling ability of cells at 2.5 to 10 uM incubated for 48 hrs by wound healing assay; type: functional, cell-based; details: dose 2.5-10 µM
[4] = as §1; type: ADME; details: recombinant enzyme
A549 [5] = test: Induction of apoptosis in DMBA-stimulated PTX resistant human A549 cells assessed as apoptosis rate at 5 uM incubated for 24 hrs by flow cytometry (reference value: 6.67 +/- 1.03%); type: functional
[6] = n-Octanol/water partition coefficient, logP of the compound by HPLC analysis; type: physicochemical

Structure (SMILES) | inhibition at 35 min, 1 µM (CYP1B1 [1]) [%] | inhibition at 35 min, 0.01 µM (CYP1B1 [2]) [%] | further results
Nc1nc(-c2ccc(F)cc2)nc2ccccc12 | 80.7 | 3.73 | –
Ic1ccc(-c2nc(NCc3ccccc3)c3ccccc3n2)cc1 | 91.2 | 2 | –
CC(C)Nc1nc(-c2ccc(I)cc2)nc2ccccc12 | 95.3 | 32.8 | –
Nc1nc(-c2ccccc2)nc2ccccc12 | 65.5 | -13.5 | –
NCCNc1nc(-c2ccc(I)cc2)nc2ccccc12 | 39.5 | -6.11 | –
Nc1nc(-c2cccc(Cl)c2)nc2ccccc12 | 74.4 | 25.8 | –
COc1cccc(-c2nc(N)c3ccccc3n2)c1 | 91.7 | 10.1 | –
CCCCNc1nc(-c2ccc(I)cc2)nc2ccccc12 | 86.4 | 21.8 | –
Nc1nc(-c2cccc(C(=O)O)c2)nc2ccccc12 | 10.2 | 22.4 | –
Nc1nc(-c2ccc(C(=O)O)cc2)nc2ccccc12 | -2.32 | 20.2 | –
COC(=O)c1cccc(-c2nc(N)c3ccccc3n2)c1 | 1.98 | 28.4 | –
Ic1ccc(-c2nc(Nc3ccccc3)c3ccccc3n2)cc1 | 60.4 | 7.25 | –
Cc1ccc(-c2nc(N)c3ccccc3n2)cc1 | 97.8 | 89.6 | selectivity ratio (CYP1A1 versus CYP1B1): 156; IC50 (Cytochrome P450 1A2): 5340 nM; IC50 (Cytochrome P450 1A1): 263 nM; IC50 (Cytochrome P450 1B1): 1.69 nM; selectivity ratio (CYP1A2 versus CYP1B1): 3160
Ic1ccc(-c2nc(N3CCOCC3)c3ccccc3n2)cc1 | 93.8 | 51.8 | –
C#CCOc1ccc(-c2nc(N)c3ccccc3n2)cc1 | 96 | 74.4 | –
CN(C)c1nc(-c2ccc(I)cc2)nc2ccccc12 | 95.5 | 65.4 | –

Structure (SMILES) | inhibition at 35 min, 1 µM (CYP1B1 [1]) [%] | inhibition at 35 min, 0.01 µM (CYP1B1 [2]) [%] | further results
O=c1[nH]c(-c2ccc(Br)cc2)nc2ccccc12 | 94.5 | 69.5 | –
COc1ccc(-c2nc(N)c3ccccc3n2)cc1 | 91.8 | 84.1 | selectivity ratio (CYP1A1 versus CYP1B1): 99.9; IC50 (Cytochrome P450 1A2): 5840 nM; IC50 (Cytochrome P450 1A1): 248 nM; IC50 (Cytochrome P450 1B1): 2.48 nM; selectivity ratio (CYP1A2 versus CYP1B1): 2360
Nc1nc(-c2ccc(I)cc2)nc2ccccc12 | – | – | inhibition (A549 [3]): Active
Ic1ccc(-c2nc(N3CCCCC3)c3ccccc3n2)cc1 | 91.1 | 13.8 | –
Cl.Nc1nc(-c2ccc(I)cc2)nc2ccccc12 | 96.7 | 94.5 | Ratio IC50 [4]: 617.5; IC50 (Cytochrome P450 1A2): 2030 nM; IC50 (Cytochrome P450 1A1): 12.3 nM; IC50 (Cytochrome P450 1B1): 0.02 nM; Activity (A549 [5]): 18.53%; logP ([6]; octanol/water): 2.71; selectivity ratio (CYP1A2 versus CYP1B1): 101000
Ic1ccc(-c2nc(N3CCCC3)c3ccccc3n2)cc1 | 94.9 | 39.8 | –
Nc1nc(-c2cccc(F)c2)nc2ccccc12 | 78.9 | -1.45 | –
Nc1nc(-c2cccc(I)c2)nc2ccccc12 | 96.7 | 66.4 | –
COC(=O)c1ccc(-c2nc(N)c3ccccc3n2)cc1 | 92.7 | 15.9 | –
OCCNc1nc(-c2ccc(I)cc2)nc2ccccc12 | 96.5 | 68.5 | –
Nc1nc(-c2ccc(Cl)nc2)nc2ccccc12 | 68 | 6.96 | –
CCCNc1nc(-c2ccc(I)cc2)nc2ccccc12 | 94.2 | 67.8 | –
Nc1nc(-c2ccc(Br)nc2)nc2ccccc12 | 73.4 | 12.8 | –
Nc1nc(-c2ccc(Cl)cc2)nc2ccccc12 | 96 | 68.4 | –
Nc1nc(-c2ccc(Oc3ccc(Cl)cc3Cl)cc2)nc2ccccc12 | 27.6 | 1.94 | –

Continued, in another order:

inhibition at 35 min, 1 µM (CYP1B1 [1]) [%] | inhibition at 35 min, 0.01 µM (CYP1B1 [2]) [%] | Structure (SMILES) | further results
95.4 | 80.6 | Nc1nc(-c2ccc(Br)cc2)nc2c1ccc1ccccc12 | selectivity ratio (CYP1A1 versus CYP1B1): 9.16; IC50 (Cytochrome P450 1A2): 784 nM; IC50 (Cytochrome P450 1A1): 28.1 nM; IC50 (Cytochrome P450 1B1): 3.07 nM; selectivity ratio (CYP1A2 versus CYP1B1): 256
95.2 | 44.2 | COc1ccc(-c2nc(N)c3ccc4ccccc4c3n2)cc1 | –
94.2 | 14 | Nc1nc(-c2cccc(Cl)c2)nc2c1ccc1ccccc12 | –
94.5 | 10.5 | Nc1nc(-c2cccc(F)c2)nc2c1ccc1ccccc12 | –
93.8 | -12.8 | Nc1nc(-c2cccc(Br)c2)nc2c1ccc1ccccc12 | –
88.5 | 63.1 | Nc1nc(-c2ccc(I)cc2)nc2c1ccc1ccccc12 | –
75.3 | -13.1 | Cc1ccc(-c2nc(N)c3ccc4ccccc4c3n2)cc1 | –
96.4 | 82.7 | Nc1nc(-c2ccc(Br)cc2)nc2ccccc12 | selectivity ratio (CYP1A1 versus CYP1B1): 211; IC50 (Cytochrome P450 1A2): 1990 nM; IC50 (Cytochrome P450 1A1): 104 nM; IC50 (Cytochrome P450 1B1): 0.49 nM; logP ([6]; n-octanol/water, read-out: logP): 2.12; selectivity ratio (CYP1A2 versus CYP1B1): 4060
95.4 | 69.4 | Nc1nc(-c2ccc(Cl)cc2)nc2c1ccc1ccccc12 | –
93.5 | 6.15 | Nc1nc(-c2ccccc2)nc2c1ccc1ccccc12 | –
55.4 | 13.2 | Nc1nc(-c2cccc(Br)c2)nc2ccccc12 | –
95 | 11 | Nc1nc(-c2ccc(F)cc2)nc2c1ccc1ccccc12 | –
94.8 | 3.87 | COc1cccc(-c2nc(N)c3ccc4ccccc4c3n2)c1 | –
